Activity calls are given as the source filed them. The rule behind the calls is not given here.
Assays:
[1] = molecular target: 5-hydroxytryptamine receptor 2A (Homo sapiens, UniProt P28223)
Description: Binding affinity for human 5-hydroxytryptamine 2A receptor

[2] = Half life period was determined in rat; assay type: ADME, organism-based; conditions: in vivo
[3] = Bioavailability in rat; assay type: ADME, organism-based; conditions: in vivo
[4] = Binding affinity at sodium channels
[5] = tested on: Rattus norvegicus; assay: Block of mescaline induced head twitch in rat at 1 hour after peroral administration of compound; assay type: functional; conditions: po
[6] = tested on: Rattus norvegicus; assay: Block of mescaline induced head twitch in rat at 6 hour after peroral administration of compound; assay type: functional; conditions: po
[7] = molecular target: T1, D(4) dopamine receptor (Homo sapiens, UniProt P21917)
T1 sequence (P21917 whole entry): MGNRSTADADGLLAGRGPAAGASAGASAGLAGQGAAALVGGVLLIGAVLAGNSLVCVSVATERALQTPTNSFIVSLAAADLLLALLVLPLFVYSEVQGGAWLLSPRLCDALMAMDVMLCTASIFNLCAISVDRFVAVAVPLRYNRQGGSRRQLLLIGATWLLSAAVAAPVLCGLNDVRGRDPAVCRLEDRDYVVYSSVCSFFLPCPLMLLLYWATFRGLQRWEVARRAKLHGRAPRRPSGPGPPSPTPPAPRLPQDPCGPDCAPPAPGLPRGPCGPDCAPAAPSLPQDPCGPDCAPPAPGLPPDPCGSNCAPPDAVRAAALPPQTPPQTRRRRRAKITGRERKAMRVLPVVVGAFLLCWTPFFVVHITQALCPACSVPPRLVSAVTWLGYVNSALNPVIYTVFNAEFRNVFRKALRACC

[8] = tested on: Rodentia sp.; assay: Antipsychotic potential by blockade of apomorphine or amphetamine hyperactivity after a (sc) administration; assay type: functional
[9] = tested on: Rodentia sp.; assay: Extrapyramidal liability by induction of catalepsy after a (sc) administration 80 umol/kg; not effective; assay type: functional, organism-based
[10] = tested on: Rodentia sp.; assay: Induction of catalepsy was determined after a (sc) administration; assay type: functional
[11] = tested on: Rodentia sp.; assay: Motor impairment by impaired spontaneous locomotor activity after a (sc) administration; assay type: functional
[12] = tested on: Rodentia sp.; assay: Antipsychotic potential by inhibition of conditioned avoidance responding after a (sc) administration 40 umol/kg; not effective; assay type: functional, organism-based
[13] = tested on: Rodentia sp.; assay: Motor impairment by impaired rotarod performance after a (sc) administration; assay type: functional
[14] = Percent inhibition of binding affinity for sodium channel at 10 uM
[15] = molecular target: Voltage-gated L-type calcium channel (Homo sapiens, UniProt O60840+Q01668+Q13698+Q13936); assay: Percent inhibition of binding to calcium channel at 10 uM; assay type: protein assay
[16] = Cmax was determined in rat after oral administration of 3 mg/kg; assay type: ADME, organism-based; set-up: dose 3 mg/kg, route oral; conditions: in vivo
[17] = Plasma half life period was determined in human; assay type: ADME, organism-based
[18] = molecular target: T2, Muscarinic acetylcholine receptor M1 (Homo sapiens, UniProt P11229)
T2 sequence (P11229 whole entry): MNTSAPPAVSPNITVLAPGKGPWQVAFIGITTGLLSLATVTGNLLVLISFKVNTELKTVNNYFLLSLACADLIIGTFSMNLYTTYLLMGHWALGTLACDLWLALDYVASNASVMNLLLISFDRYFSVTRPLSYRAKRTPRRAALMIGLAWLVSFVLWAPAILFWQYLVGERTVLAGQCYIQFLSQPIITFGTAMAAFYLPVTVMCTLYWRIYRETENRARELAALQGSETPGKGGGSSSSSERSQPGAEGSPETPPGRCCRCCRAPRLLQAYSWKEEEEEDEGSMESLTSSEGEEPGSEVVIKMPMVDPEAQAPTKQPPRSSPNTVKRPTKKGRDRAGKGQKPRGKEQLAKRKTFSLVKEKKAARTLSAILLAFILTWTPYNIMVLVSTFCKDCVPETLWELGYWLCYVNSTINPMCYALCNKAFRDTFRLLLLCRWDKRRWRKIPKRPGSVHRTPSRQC
Description: Binding affinity towards human M1 receptor.

[19] = molecular target: T3, Adrenergic receptor alpha-1 (Homo sapiens, UniProt P35348+P25100+P35368)
T3 sequence (P35348 whole entry): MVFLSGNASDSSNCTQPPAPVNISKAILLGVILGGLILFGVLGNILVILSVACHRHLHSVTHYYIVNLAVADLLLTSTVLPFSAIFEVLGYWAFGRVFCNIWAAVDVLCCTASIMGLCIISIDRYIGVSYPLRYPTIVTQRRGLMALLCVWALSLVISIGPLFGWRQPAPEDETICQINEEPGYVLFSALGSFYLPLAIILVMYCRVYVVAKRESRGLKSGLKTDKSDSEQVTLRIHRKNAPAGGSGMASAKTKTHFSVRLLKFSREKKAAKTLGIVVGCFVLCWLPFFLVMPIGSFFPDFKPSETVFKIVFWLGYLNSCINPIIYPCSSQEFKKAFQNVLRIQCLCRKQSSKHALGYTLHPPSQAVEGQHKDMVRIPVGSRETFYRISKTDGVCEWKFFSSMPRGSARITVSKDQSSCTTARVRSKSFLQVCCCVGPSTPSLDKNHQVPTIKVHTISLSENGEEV
T3 sequence (P25100 whole entry): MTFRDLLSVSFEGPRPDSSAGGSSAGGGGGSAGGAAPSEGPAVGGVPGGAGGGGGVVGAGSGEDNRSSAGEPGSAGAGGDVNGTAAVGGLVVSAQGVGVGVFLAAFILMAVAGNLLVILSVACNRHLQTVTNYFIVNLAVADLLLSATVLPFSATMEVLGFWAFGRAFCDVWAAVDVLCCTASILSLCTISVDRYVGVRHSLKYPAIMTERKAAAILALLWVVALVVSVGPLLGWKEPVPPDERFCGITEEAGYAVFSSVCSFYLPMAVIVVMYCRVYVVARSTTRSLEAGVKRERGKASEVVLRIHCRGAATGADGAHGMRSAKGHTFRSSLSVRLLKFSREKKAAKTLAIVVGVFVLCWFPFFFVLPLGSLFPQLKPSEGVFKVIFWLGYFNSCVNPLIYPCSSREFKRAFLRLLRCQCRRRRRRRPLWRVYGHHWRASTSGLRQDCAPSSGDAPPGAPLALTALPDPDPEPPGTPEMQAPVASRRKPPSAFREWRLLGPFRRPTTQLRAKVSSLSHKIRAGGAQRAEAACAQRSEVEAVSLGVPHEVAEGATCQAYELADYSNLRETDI
T3 sequence (P35368 whole entry): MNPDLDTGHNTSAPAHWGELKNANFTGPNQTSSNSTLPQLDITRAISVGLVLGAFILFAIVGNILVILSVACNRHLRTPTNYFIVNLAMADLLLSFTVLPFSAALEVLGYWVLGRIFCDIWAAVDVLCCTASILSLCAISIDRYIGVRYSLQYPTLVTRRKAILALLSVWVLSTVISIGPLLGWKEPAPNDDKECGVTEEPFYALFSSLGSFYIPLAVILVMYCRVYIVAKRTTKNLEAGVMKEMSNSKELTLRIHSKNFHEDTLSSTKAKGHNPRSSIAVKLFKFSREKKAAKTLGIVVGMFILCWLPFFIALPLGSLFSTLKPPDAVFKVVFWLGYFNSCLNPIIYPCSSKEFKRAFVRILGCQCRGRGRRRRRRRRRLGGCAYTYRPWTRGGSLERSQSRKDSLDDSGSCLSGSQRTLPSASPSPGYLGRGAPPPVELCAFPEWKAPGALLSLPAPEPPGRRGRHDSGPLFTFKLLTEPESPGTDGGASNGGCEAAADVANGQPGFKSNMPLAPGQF
Description: Binding affinity towards human alpha-1 adrenergic receptor

[20] = molecular target: T4, 5-hydroxytryptamine receptor 1A (Homo sapiens, UniProt P08908); assay: Binding affinity towards human 5-hydroxytryptamine 1 receptor
T4 sequence (P08908 whole entry): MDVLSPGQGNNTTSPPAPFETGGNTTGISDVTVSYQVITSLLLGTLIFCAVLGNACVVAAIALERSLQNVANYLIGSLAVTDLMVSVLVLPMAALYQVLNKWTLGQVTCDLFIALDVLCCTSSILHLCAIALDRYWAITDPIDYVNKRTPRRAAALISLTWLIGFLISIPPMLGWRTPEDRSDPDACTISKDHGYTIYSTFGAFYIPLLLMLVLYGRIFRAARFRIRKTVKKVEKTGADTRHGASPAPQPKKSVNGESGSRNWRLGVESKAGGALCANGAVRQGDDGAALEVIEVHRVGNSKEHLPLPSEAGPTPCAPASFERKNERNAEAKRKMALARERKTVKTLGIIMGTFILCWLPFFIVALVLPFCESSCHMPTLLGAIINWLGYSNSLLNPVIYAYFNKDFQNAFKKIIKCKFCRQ

[21] = tested on: Mus musculus; assay: Antagonizing amphetamine induced hyperlocomotion in mice was determined after […] administration; assay type: functional
[22] = Oral bioavailability was determined in rats and rhesus monkey; assay type: ADME, organism-based; conditions: eutheria, in vivo
[23] = Brain/Plasma AUC ratio was determined after oral administration of 50 mg/kg; assay type: ADME, organism-based; set-up: dose 50 mg/kg, route oral; conditions: brain and plasma
[24] = tested on: Mus musculus; assay: Antagonizing amphetamine induced hyperlocomotion in mice was determined after (ip) administration; assay type: functional
[25] = tested on: Rodentia sp.; assay: Antipsychotic potential by blockade of apomorphine or amphetamine hyperactivity after oral administration; assay type: functional
[26] = tested on: Rodentia sp.; assay: Extrapyramidal liability by induction of catalepsy after oral administration of […] umol/kg; not effective; assay type: functional, organism-based
[27] = tested on: Rodentia sp.; assay: EPS liability measured by blockade of stereotypy after oral administration of […] umol/kg; not effective; assay type: functional, organism-based
[28] = tested on: Rodentia sp.; assay: Antipsychotic potential by blockade of apomorphine disruption in PPI after (sc) administration; assay type: functional; conditions: read-out: MED
[29] = tested on: Rodentia sp.; assay: Motor impairment by impaired spontaneous locomotor activity after oral administration of […] umol/kg; not effective; assay type: functional, organism-based
[30] = tested on: Rodentia sp.
[31] = tested on: Rodentia sp.; remark: listed apart in the source
[32] = tested on: Rodentia sp.; remark: listed apart in the source
[33] = tested on: Rodentia sp.; remark: listed apart in the source
[34] = tested on: Rodentia sp.; remark: listed apart in the source

Chain of 5-hydroxytryptamine receptor 2A (P28223 whole entry): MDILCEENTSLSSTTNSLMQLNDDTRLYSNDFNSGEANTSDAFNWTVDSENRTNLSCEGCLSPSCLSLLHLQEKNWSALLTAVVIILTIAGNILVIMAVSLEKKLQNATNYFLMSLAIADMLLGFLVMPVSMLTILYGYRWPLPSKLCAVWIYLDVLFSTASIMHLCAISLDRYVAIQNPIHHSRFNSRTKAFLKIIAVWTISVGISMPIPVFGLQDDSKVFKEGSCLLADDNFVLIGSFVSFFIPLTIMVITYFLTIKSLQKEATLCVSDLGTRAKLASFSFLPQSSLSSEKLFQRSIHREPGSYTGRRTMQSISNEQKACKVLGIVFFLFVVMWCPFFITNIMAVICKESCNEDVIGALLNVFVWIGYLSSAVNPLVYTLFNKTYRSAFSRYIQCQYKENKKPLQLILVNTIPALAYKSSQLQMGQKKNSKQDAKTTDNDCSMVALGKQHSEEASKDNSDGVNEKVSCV

Work on O=C(c1ccccc1)C1CCN(CCc2ccccc2)CC1 yielded a Ki [1] of 9.6 nM.
For OC(c1ccccc1)C1CCN(CCc2ccccc2)CC1 (configuration not stated) [GLEMANSERIN], the Ki [1] was 2.5 nM.
With Cc1c(C2CCN(CCc3ccccc3)CC2)noc1-c1ccc(Cl)cc1 the half-life [2] was 2 h and the bioavailability [3] was 38%.
In the case of c1ccc(N2CCN(Cc3c[nH]c4ccccc34)CC2)cc1, the IC50 [4] is reported as > 10000 nM.
With O=S1(=O)c2cccc3cccc(c23)N1CCCN1CCN(c2ccc(F)cc2)CC1 [FANANSERIN] the ED50 [5] was 0.99 mg/kg, the ED50 [6] was 2.4 mg/kg and the Ki [7] was 2.9 nM.
In the case of c1ccc2c(c1)CC(CN1CCN(c3ccc4c(c3)OCCO4)CC1)C2, the ED50 [8] is reported as 9 mg/kg, the NE [9] is reported as “inactive” and the ED50 [10] is reported as 80 mg/kg. For the same molecule, the ED50 [11] was 40 mg/kg, the NE [12] was “inactive” and the ED50 [13] was 66 mg/kg.
Molecule Clc1ccccc1CCN1CCN(c2[nH]nc3c2CCc2ccccc2-3)CC1 has a half-life [2] of 1 h, a bioavailability [3] of 31% and an inhibition [14] of 33%. It also gave a Ki [7] of 4.3 nM and an inhibition at 10 µM [15] of 58%.
Work on O=c1ccc2ccc(NCCNc3ccccc3)cc2o1 yielded a Ki [7] of 5.8 nM.
In the case of c1ccc(N2CCN(Cc3c[nH]c4ncccc34)CC2)cc1, the Ki [7] is reported as 1.9 nM and the Cmax [16] is reported as 18 ng/mL.
For Cc1c(-c2ccccc2)[nH]c(=O)n1C1CCN(Cc2cccc(C#N)c2)CC1, the half-life [2] was 1.1 h and the bioavailability [3] was 69%.
O=C(c1ccc(F)cc1)C1CCN(CCn2c(=O)[nH]c3ccccc3c2=O)CC1 [KETANSERIN] gave a Ki [7] of 3.5 nM.
With COc1cccc([C@H](O)C2CCN(CCc3ccc(F)cc3)CC2)c1OC [VOLINANSERIN] the half-life [17] was 6.6 h.
In the case of OC(c1ccc(F)cc1)C1CCN(CCCCc2ccccc2)CC1 (configuration not stated), the Ki [1] is reported as 126 nM.
In the case of O=C1Cc2cc(CCN3CCN(c4nsc5ccccc45)CC3)c(Cl)cc2N1 [ZIPRASIDONE], the Ki [18] is reported as > 10000 nM, the Ki [19] is reported as 1.9 nM and the Ki [20] is reported as 37 nM.
In the case of O=C(c1ccc(F)cc1)C1CCN(CCCCc2ccccc2)CC1, the Ki [1] is reported as 5.3 nM.
In the case of COc1cccc([C@H](O)C2CCN(CCc3ccc(F)cc3)CC2)c1O, the ED50 [21] is reported as 0.62 mg/kg, the bioavailability [22] is reported as < 3% and the Kp [23] is reported as < 0.13. It also gave an ED50 [24] of 0.08 mg/kg.
With Fc1ccc(OC[C@@H]2CC[C@H]3CN(c4ncc(F)cn4)CCN3C2)cc1 the ED50 [25] was 13 mg/kg, the NE [26] was “inactive” and the NE [27] was “inactive”. The minimal effective dose [28] was 18 mg/kg and the NE [29] was “inactive”.
In the case of NS(=O)(=O)c1ccc(N2CCN(CC[C@@H]3OCCc4ccccc43)CC2)cc1 [SONEPIPRAZOLE], the NE [30] is reported as “inactive”, the NE [31] is reported as “inactive” and the NE [32] is reported as “inactive”. The minimal effective dose [28] was 30 mg/kg, the NE [33] was “inactive” and the Ki [7] was 6.8 nM. The NE [34] was “inactive”.
